Laboratory results: patent publication US6040303A, “7-phenyl-1, 4-diazepane compounds, process for their preparation, and pharmaceutical compositions containing them” (Solvay Pharmaceuticals GmbH, priority 1997, dated 2000)

What was measured:
[1] = target: T1, human NK-1 receptors (Homo sapiens, UniProt P25103); assay: Binding affinity to human NK-1 receptors ([3H]-substance P displacement, membranes of CHO cells); settings: membrane preparation of CHO cells expressing human NK-1 receptor, Ki calculated from IC50, read-out: In vitro binding to human NK-1 receptors - Ki value
T1 construct: expressed in transfected cells; host or cells: CHO cells (membrane preparation)
Protocol: 1. Determination of the binding power of the test substances to NK-1 receptors.
The affinity of the test substances to human NK-1 receptors was measured in vitro, and the inhibition of the binding of the physiological neurokinin substance P to neurokinin-1 receptors was determined.
The receptor binding studies were performed with [^3 H]-substance P as ligand. For the binding test, different samples of a membrane preparation of CHO cells (=egg cells of the Chinese hamster, […]), which express the human NK-1 receptor, were incubated with a solution of the marked ligand, with the incubation mixtures containing no test substance or additions of different concentrations of test substance. Then, bound and free ligands in each of the samples were separated with the aid of glass-fiber filtration. The fraction remaining in the filter was washed several times with buffer solution, and then the radioactivity of the fraction remaining in the filter was measured using a beta scintillation counter. That concentration which effects half maximum displacement of the bound ligand was determined as IC50 of the respective test substance. From this, the corresponding inhibition constant (Ki value) of the test substance was calculated.
The example numbers listed for the compounds of Formula I relate to the following preparative examples.

[2] = system: visceral sensitivity to pain in rats (distension-induced contractions of the abdominal muscles); assay: Influencing of the visceral sensitivity to pain: distension-induced abdominal contractions in rats; assay type: in vivo; settings: rat, subcutaneous, 20 minutes after administration
Excerpt: 3. Investigation of the activity of the compounds on the visceral sensitivity to pain in rats.
Visceral pain leads to visceral reactions which manifest themselves, inter alia, by contractions of the abdominal muscles. The number of contractions of the abdominal muscles occurring after a mechanical pain stimulus caused by distending the large intestine is thus a measurement for determining the visceral sensitivity to pain.
The inhibiting activity of the test substances on distension-induced abdominal contractions was tested in rats. The distension of the large intestine with an introduced balloon was used as the stimulus; the contraction of the abdominal muscles was measured as response. One hour after the sensitising of the large intestine by instillation of dilute acetic acid (0.6%, 1.5 ml), a latex balloon was introduced and inflated to 100 mbar for 10 minutes. During this time, the contractions of the abdominal muscles were counted. 20 minutes after subcutaneous administration of the test substance, this measurement was repeated. The activity of the test substance was calculated as a percentage reduction in the counted contractions compared with the control. The reductions in the number of abdominal contractions achieved with different doses of the test substance of Example 1 are listed in percentages, relative to the control values (=100%) measured before ingestion of the substance in the following Table 3.

[3] = system: stool passage through the colon of the rat; assay: Influencing of colon passage: barium sulfate elimination after oral administration in rats; assay type: in vivo
Protocol: 2. Investigation of the activity of the compounds on stool passage through the colon of the rat.
The effects of the test substances on the transport of stools through the large intestine were examined in rats after feeding. After feeding, the beginning of elimination and the mean dwell time of barium sulfate in the colon were determined as a measurement of the colon motility leading to elimination of stools.
After oral administration of the test substance, the animals were administered 2 ml of an 80% barium sulfate suspension via an artificial outlet at the caecum. The animals were placed in metabolism cages, and the faeces were collected at one hour intervals over 24 hours. The content of barium sulfate in the faeces was measured using radiography, and the beginning of elimination of barium sulfate and the mean retention time were determined therefrom. The delays in the beginning of elimination and prolongations of the mean residence time of the barium sulfate achieved in this experimental arrangement with various doses of the test substance of Example 1 can be seen from the following Table 2. The time interval up to the beginning of elimination and the mean retention time are given in percentages relative to the values obtained in a control test without test substance (=100%).

T1 sequence (P25103 whole entry): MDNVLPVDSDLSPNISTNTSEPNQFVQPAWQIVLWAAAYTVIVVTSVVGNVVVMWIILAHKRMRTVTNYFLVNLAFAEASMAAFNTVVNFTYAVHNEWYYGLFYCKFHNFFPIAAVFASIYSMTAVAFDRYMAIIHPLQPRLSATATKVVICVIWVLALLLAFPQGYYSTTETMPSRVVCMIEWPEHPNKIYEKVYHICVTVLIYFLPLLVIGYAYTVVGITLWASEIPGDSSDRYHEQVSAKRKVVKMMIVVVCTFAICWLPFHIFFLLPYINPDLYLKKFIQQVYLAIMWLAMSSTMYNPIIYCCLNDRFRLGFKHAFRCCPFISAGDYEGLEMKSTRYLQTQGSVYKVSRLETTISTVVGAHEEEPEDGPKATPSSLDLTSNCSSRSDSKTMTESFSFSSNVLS

SMILES: COc1ccccc1CN(C)CCCC(=O)N1CCC(c2ccccc2)N(C(=O)c2cc(C(F)(F)F)cc(C(F)(F)F)c2)CC1 (single isomer, unassigned; (-)) [Example 2, (-)-1-(3,5-bistrifluoromethylbenzoyl)-4-{[3-[N-(2-methoxybenzyl)-N-methyl]amino]propylcarbonyl}-7-phenyl-1,4-diazepane]
- Ki [1]: 0.01 µM

SMILES: COc1ccccc1CN(C)CCCC(=O)N1CCC(c2ccccc2)N(C(=O)c2cc(C(F)(F)F)cc(C(F)(F)F)c2)CC1 (stereo not shown) [Example 1, 1-(3,5-bistrifluoromethylbenzoyl)-4-{[3-[N-(2-methoxybenzyl)-N-methyl]amino]propylcarbonyl}-7-phenyl-1,4-diazepane]
- Ki [1]: 0.012 µM
- Reduction in the number of distension-induced contractions of the abdominal muscles in % relative to control value = 100% ([2]; 10 μmole/kg): 33%
- Reduction in the number of distension-induced contractions of the abdominal muscles in % relative to control value = 100% ([2]; 21.5 μmole/kg): 39%
- Reduction in the number of distension-induced contractions of the abdominal muscles in % relative to control value = 100% ([2]; 100 μmole/kg): 61%
- Mean retention time in % relative to control value = 100% ([3]; 10 μmole/kg): 98%
- Time interval until beginning of elimination in % relative to control value = 100% ([3]; 10 μmole/kg): 100%
- Mean retention time in % relative to control value = 100% ([3]; 21.5 μmole/kg): 106%
- Time interval until beginning of elimination in % relative to control value = 100% ([3]; 21.5 μmole/kg): 115%
- Mean retention time in % relative to control value = 100% ([3]; 100 μmole/kg): 119%
- Time interval until beginning of elimination in % relative to control value = 100% ([3]; 100 μmole/kg): 138%

SMILES: COc1ccccc1CNCC(=O)N1CCC(c2ccccc2)N(C(=O)c2cc(C)cc(C)c2)CC1 (stereo not shown) [Example 4, 1-(3,5-dimethylbenzoyl)-4-{[N-(2-methoxybenzyl)amino]acetyl}-7-phenyl-1,4-diazepane]
- Ki [1]: 0.008 µM

SMILES: COc1ccccc1CNCCCC(=O)N1CCC(c2ccccc2)N(C(=O)c2cc(C(F)(F)F)cc(C(F)(F)F)c2)CC1 (stereo not shown) [Example 14]
- Ki [1]: 0.01 µM
